Measurements: patent publication US9421204B2, “Oligomer modified diaromatic substituted compounds” (priority 2010, dated 2016)
Like-named read-outs stand apart in the source and are kept apart here.

Key:
in vitro = in vitro ADME; settings: human; for Papp A→B at 2 hours, 10 μM / Papp B→A at 2 hours, 10 μM: pH 7.4; for Papp A→B at 2 hours, 10 μM: read-out: Average Papp, A→B; for Papp B→A at 2 hours, 10 μM: read-out: Average Papp, B→A; for efflux ratio at 2 hours, 10 μM: read-out: Efflux Ratio (B→A/A→B)
Method: Each determination was performed in duplicate.
Vr is the volume of the receiver compartment in cm^3.
Vd is the volume of the donor compartment in cm^3.
A is the area of the cell monolayer (1.13 cm^2 for 12-well Transwell®).
CN is the nominal dosing concentration of the dosing solution in μM.
CA is the average of the nominal dosing concentration and the measured 120 minute donor concentration in μM.
Cr^final is the receiver concentration in μM at the end of the incubation period.
Cd^final is the concentration of the donor in μM at the end of the incubation period.

HIV-1RF = assay: Anti-HIV-1 cytoprotection assay in CEM-SS cells; type: cell-based; settings: for Therapeutic Index: CEM-SS/HIV-1RF; for EC50: CEM-SS cells, XTT, read-out: CEM-SS/HIV-1RF EC50
Method: Cell Preparation—CEM-SS cells were passaged in T-75 flasks prior to use in the antiviral assay. On the day preceding the assay, the cells were split 1:2 to assure they were in an exponential growth phase at the time of infection. Total cell and viability quantification was performed using a hemocytometer and Trypan Blue dye exclusion. […] The cells were resuspended at 5×10^4 cells per ml in tissue culture medium and added to the drug containing microtiter plates in a volume of 50 μL.
Virus Preparation—The virus used for the assay was the lymphocyte-tropic virus strain HIV-IRF. The virus was obtained from the NIH AIDS Research and Reference Reagent Program and stock virus pools were produced in CEM-SS cells. A pretitred aliquot of virus was removed from the freezer (−80° C.) and allowed to thaw slowly to room temperature in a biological safety cabinet.
Plate Format—Each plate contains cell control wells (cells only), virus control wells (cells plus virus), drug toxicity wells (cells plus drug only), drug colorimetric control wells (drug only) as well as experimental wells (drug plus cells plus virus). Samples were tested in triplicate with eleven half-log dilutions per compound.
Efficacy and Toxicity XTT—Following incubation at 37° C. in a 5% CO2 incubator, the test plates were stained with the tetrazolium dye XTT (2,3-bis(2-methoxy-4-nitro-5-sulfophenyl)-5-[(phenylamino)carbonyl]-2H-tetrazolium hydroxide). XTT-tetrazolium is metabolized by the mitochondrial enzymes of metabolically active cells to a soluble formazan product, allowing rapid quantitative analysis of the inhibition of HIV induced cell killing by anti-HIV test substances. XTT solution was prepared daily as a stock of 1 mg/mL in RPMI1640. Phenazine methosulfate (PMS) solution was prepared at 0.15 mg/mL in PBS and stored in the dark at −20° C. XTT/PMS stock was prepared immediately before use by adding 40 μL of PMS per ml of XTT solution. Fifty microliters of XTT/PMS was added to each well of the plate and the plate was re-incubated for 4 hours at 37° C. Plates were sealed with adhesive plate sealers and shaken gently or inverted several times to mix the soluble fosmazan product and the plate was read spectrophotometrically at 450/650 nm with a Molecular Devices Vmax plate reader.
Anti-HIV-1 Cytopathic Effects Inhibition Assay Evaluations: Eight compounds were evaluated against the RF strain of HIV-1 in CEM-SS cells using a 12 concentration dose response curve.
Data Analysis—Raw data was collected from the Softmax Pro 4.6 software and imported into a Excel XLFit4 spreadsheet for analysis by four parameter curve fit calculations. Both antiviral activity and toxicity are calculated.

[1] = pKa determination (Sirius GLpKa); type: physicochemical; settings: aqueous pKa, 25° C.
Method: The Sirius GLpKa instrument is used to determine the pKa and Log P. A blank standardization has to be completed first and passed in order to conduct the compound experiments. The solutions used by the instrument for the blank titration include water, a pH solution, and a surfactant (TRITON X-100). The TRITON X-100 was purchased commercially from Sirus. The 0.5% solution of TRITON X-100 was used in the experiment. In a 1 L volumetric flask 5 mls of TRITON X-100 is added and MILLI Q water to volume. The vessels used by the instrument were filled to ⅓ of their volume with each solution. Therefore the assay tray contains one vessel for water, pH solution, and surfactant for the blank run. The temperature of the water bath for the instrument is 25° C. The blank is calculated as an average of three “good” experiments. The “good” was denoted by a green check mark next to the assay number in the computer software. Once the blank was run successfully the instrument was ready to conduct the experiments.
The pKa has to be determined first in order to calculate the Log P. The API is used to determine the pKa needed for the Log P experiment followed by the conjugates. The base compound was first weighed into a vessel. The amount weighed for each sample was 10% of the molecular weight of the compound. The same procedure was followed for each conjugate. The vessels were placed in the assay tray of the instrument. A method had to be set up for the pKa run. The experimental parameters are entered into the computer software. These included sample weight, molecular weight, assay type (aqueous pKa), number of assays (three), and titration range (generally 3.5-12). The run was started. There are three measurements for each run that are averaged to obtain the final results from the data points collected in the calculation software. All runs were denoted as “good” by the green check mark next to the assay number.

[2] = Caco-2, pH 7.4, Test 2, 10 μM, read-out: Recovery (%) A→B
[3] = Caco-2, pH 7.4, Test 2, 10 μM, read-out: Recovery (%) B→A
[4] = Human immunodeficiency virus 1, CEM-SS
[5] = Caco-2, pH 7.4, Test 1, 10 μM, read-out: Recovery (%) A→B
[6] = Caco-2, pH 7.4, Test 1, 10 μM, read-out: Recovery (%) B→A

Compound	Papp A→B at 2 hours, 10 μM (in vitro; Caco-2, pH 7.4, Test 2, 10 μM) [×10⁻⁶ cm/s]	Papp B→A at 2 hours, 10 μM (in vitro; Caco-2, pH 7.4, Test 2, 10 μM) [×10⁻⁶ cm/s]	recovery at 2 h, 10 μM (in vitro; [2]) [%]	recovery at 2 h, 10 μM (in vitro; [3]) [%]	efflux ratio at 2 hours, 10 μM (in vitro; Caco-2, pH 7.4, Test 2)	Therapeutic Index (HIV-1RF)	EC50 (HIV-1RF; [4]) [nM]	Papp A→B at 2 hours, 10 μM (in vitro; Caco-2, pH 7.4, Test 1, 10 μM) [×10⁻⁶ cm/s]	Papp B→A at 2 hours, 10 μM (in vitro; Caco-2, pH 7.4, Test 1, 10 μM) [×10⁻⁶ cm/s]	recovery at 2 h, 10 μM (in vitro; [5]) [%]	recovery at 2 h, 10 μM (in vitro; [6]) [%]	efflux ratio at 2 hours, 10 μM (in vitro; Caco-2, pH 7.4, Test 1)	pKa1 [1]	EC50 (HIV-1RF) [nM]
COCCNc1ccc2[nH]c(C(=O)N3CCN(c4ncccc4NC(C)C)CC3)cc2c1 [5-mPEG1-NH-Delavirdine, 5-mPEG-NH-Delavirdine]	50.2	39.4	91	92	0.8	1083.11	47	–	–	–	–	–	–	–
COCCOCCOCCOCCOCCOCCOc1ccc2[nH]c(C(=O)N3CCN(c4ncccc4NC(C)C)CC3)cc2c1 [mPEG6-O-Delavirdine, 5-O-mPEG6-Delavirdine]	–	–	–	–	–	26.7	840	16.1	34.1	67	72	2.1	4.447	–
COCCOCCOCCOc1ccc2[nH]c(C(=O)N3CCN(c4ncccc4NC(C)C)CC3)cc2c1 [mPEG3-O-Delavirdine, 5-O-mPEG3-Delavirdine]	41.4	29.1	95	101	0.7	499.0	54	38.4	33.9	66	61	0.9	3.792	–
COCCOCCOCCOCCOCCOCCOCCOCCOc1ccc2[nH]c(C(=O)N3CCN(c4ncccc4NC(C)C)CC3)cc2c1 [mPEG8-O-Delavirdine, 5-O-mPEG8-Delavirdine]	–	–	–	–	–	144.2	360	4.98	43.6	80	82	8.8	4.667	–
COCCOCCNc1ccc2[nH]c(C(=O)N3CCN(c4ncccc4NC(C)C)CC3)cc2c1 [5-mPEG2-NH-Delavirdine]	46.2	41.1	88	88	0.9	3266.29	17	–	–	–	–	–	–	–
COCCOCCOCCOCCOc1ccc2[nH]c(C(=O)N3CCN(c4ncccc4NC(C)C)CC3)cc2c1 [mPEG4-O-Delavirdine, 5-O-mPEG4-Delavirdine]	–	–	–	–	–	213.8	160	39.3	34.8	74	65	0.9	4.275	–
COCCOCCOCCOCCOCCOc1ccc2[nH]c(C(=O)N3CCN(c4ncccc4NC(C)C)CC3)cc2c1 [mPEG5-O-Delavirdine, 5-O-mPEG5-Delavirdine]	33.3	38.9	97	95	1.2	19.0	760	29.9	39.1	71	65	1.3	4.454	–
5-O-mPEG9-Delavirdine [mPEG9-O-Delavirdine]	–	–	–	–	–	323.1	–	–	–	–	–	–	4.655	130
COCCOCCOCCOCCOCCOCCOCCOc1ccc2[nH]c(C(=O)N3CCN(c4ncccc4NC(C)C)CC3)cc2c1 [mPEG7-O-Delavirdine, 5-O-mPEG7-Delavirdine]	23.1	39.3	94	95	1.7	76.1	470	14.2	36.6	74	69	2.6	4.683	–
